Source: PubChem BioAssay (NCI)
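Grown in 96-well plates, cells were treated for 48 hours with each compound at five concentrations. Insufficient inhibition: endpoint recorded as highest concentration tested. Abbreviation: GI50, concentration required for 50% inhibition of growth. TGI: concentration producing complete growth inhibition.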

Experiments:
Assay in all cases: growth of human tumour cells (NCI), 48 h
[1] = tested on: HCT-15 colon
[2] = tested on: MDA-MB-435
[3] = tested on: T-47D breast
[4] = tested on: RPMI-8226 leukemia
[5] = tested on: PC-3 prostate
[6] = tested on: OVCAR-8 ovarian
[7] = tested on: NCI-H226 lung
[8] = tested on: DU-145 prostate
[9] = tested on: TK-10 renal
[10] = tested on: NCI/ADR-RES ovarian

SMILES | GI50 [1] | TGI [1] | GI50 [2] | TGI [2] | GI50 [3] | TGI [3] | GI50 [4] | TGI [4] | GI50 [5] | TGI [5] | GI50 [6] | TGI [6] | GI50 [7] | TGI [7] | GI50 [8] | TGI [8] | GI50 [9] | TGI [9] | GI50 [10] | TGI [10]
N#CC1(C(N)=O)C(c2ccc(Cl)cc2)CC(=O)CC1c1ccc(Cl)cc1 (stereo not drawn) | 16.8 µM | 34.3 µM | 16.3 µM | 33.2 µM | 17.4 µM | 41.8 µM | 18.1 µM | 50.7 µM | 15.9 µM | 33.7 µM | 18.4 µM | 42.2 µM | 16 µM | 31.6 µM | 15.6 µM | 29 µM | 17.1 µM | 39.5 µM | 39.7 µM | > 100 µM
FC(F)(F)c1ccc(-c2cnc(-c3ncon3)nc2NC2CCCCCC2)cc1 | 34.3 µM | > 100 µM | 71.3 µM | > 100 µM | 25.6 µM | 87.3 µM | 18.4 µM | 49.3 µM | 24.6 µM | 86.5 µM | 32.2 µM | > 100 µM | 43.1 µM | > 100 µM | 63.3 µM | > 100 µM | > 100 µM | > 100 µM | 35.3 µM | > 100 µM
O=C(/C=C/c1cc2ccccc2[nH]c1=O)/C=C/c1cc2ccccc2[nH]c1=O | 9.96 µM | > 100 µM |  | > 20 µM | 11.6 µM | > 100 µM | 4.02 µM | > 40.1 µM | > 21.5 µM | > 81.1 µM | 9.84 µM | > 72.8 µM | 14.9 µM | 38.1 µM | 12.3 µM | > 70.3 µM | 11.6 µM | > 60.7 µM | > 78 µM | > 100 µM
O=C1OC(=O)C(=C\c2ccc3c(c2)OCO3)/C1=C/c1ccc2c(c1)OCO2 |  | > 100 µM |  | > 100 µM |  | > 100 µM |  | 97.2 µM |  | > 100 µM |  | > 100 µM |  | > 100 µM |  | > 100 µM |  | > 100 µM |  | > 100 µM
CC(C)C[C@H](NC(=O)CNC(=O)c1cc(Cl)ccc1Cl)B1OC(=O)CC(CC(=O)O)(C(=O)O)O1 (stereo partly drawn) | 0.0578 µM | 5.98 µM | 0.0222 µM | 0.0612 µM | 0.0285 µM | 0.0819 µM | 0.0321 µM |  | 0.105 µM | 1.82 µM | 0.066 µM | 1.44 µM | 0.0141 µM | 0.0325 µM | 0.0804 µM | 14.8 µM | 0.0287 µM | 0.373 µM | 0.368 µM | > 100 µM
